For one series, the system named is MDA-MB-436 cells. Nature of the series: Proliferation assay in MDA-MB-436 cells (negative control cell line). Type of series: cell-based. To be noted: Homo sapiens, 144 h, Alamar Blue, read-out: MDA-MB-436 proliferation assay, EC50[M] (arithmetic mean). In a few lines:
(§1)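 KAT6A-amplified ZR-75-1 cells (RPMI 1640, 2.5% FBS) and KAT6A-low MDA-MB-436 cells (DMEM/Ham's F12, 2.5% FBS) were seeded at 3000 cells/well. Treatment lasted 144 h at 37 °C, 5% CO2, in triplicate. Viability was read by Alamar Blue (2 h) fluorescence at […].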
A general note: Resazurin is reduced to fluorescent resorufin, in cell work by metabolically active cells.

The test system of series [1] is ESR1 transcription in MVLN cells. Nature of the series: Repression of ESR1 transcription, MVLN luciferase reporter assay. In kind it is cell-based. Particulars: Homo sapiens, luciferase signal after 24 h, read-out: MVLN reporter assay, IC50[M] (arithmetic mean). In a few lines: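 MVLN cells stably carry an ER-responsive vitellogenin A2 element driving luciferase. After 24 h of compound treatment, luciferase was read in lysate as the measure of ERα transcription. Alamar Blue fluorescence (530/590 nm, 2 h) was read first to control for cell loss; samples were run in duplicate.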
In general terms: Reporter assays use an easily measured gene product as a stand-in for the process of interest.

The subject of series [2] is Salmonella tester strain TA1535. The experiment in a line: Bacterial reverse gene mutation test Ames MPF Penta I, TA1535. In kind it is cell-based. An excerpt: (§2) The employed commercial assay Ames MPF Penta I comprises the histidine auxotrophic Salmonella tester strains TA98, TA100, TA1535, TA1537 and two tryptophan auxotrophic tester strains E. coli wp2 (E. coli wp2 [pKM101] and E. coli wp2 uvrA, combined exposure). These strains meet the requirements of the OECD guideline 471 for testing chemicals.
(§3) Bacterial strains were exposed to various concentrations of the test compounds in a histidine (His) or tryptophane (Trp) deficient medium. As recommended by ICH S2(R1) guideline, the test was conducted in two assay conditions, with and without addition of microsomal enzymes (S9 mix), taking the potential formation of DNA reactive metabolites via xenobiotic biotransformation into account.
(§4) The potential of the test compound to induce gene mutations is assessed by comparing the control with the test compounds treated bacterial cultures.

For series [3], the system named is Salmonella tester strain TA100. Nature of the series: Bacterial reverse gene mutation test Ames MPF Penta I, TA100. In kind it is cell-based.
Excerpt: as §2, §3, §4

A further series addresses T1, KAT6B (Homo sapiens, UniProt Q8WYB5).
T1 construct: fused on or other part: N-terminal GST tag
The experiment in a line: Kat6b activity assay (TR-FRET, acetylation of biotinylated histone H4 peptide). In kind it is biochemical. To be noted: recombinant human GST-tagged Kat6b (431-end), 30 mins at 22° C., read-out: KAT6B activity assay IC50 [mol/l] (arithmetic mean). An excerpt:
Kat6b inhibitory activities of the compounds described in the present invention were quantified using a Fluorescence Resonance Energy Transfer (TR-FRET) assay which measures acetylation of a synthetic, biotinylated Histone-H4-derived peptide by the enzyme.
Recombinant human GST-tagged Kat6b protein (431-end, N-terminal GST-tag), purified from Baculovirus-infected insect cells (Sf9), was purchased from SignalChem (#K315-381BG). Histone H4 peptide (amino acids 1-24, […]-VLRD-K(Btn)-amide), which was used as substrate, was synthesized by Biosyntan GmbH, Berlin, Germany. Acetyl Coenzyme A was purchased from Sigma-Aldrich (#A-2056).
Kat6b was incubated for 30 mins at 22° C. in the presence of different concentrations of test substances (0 μM, and within the range 0.01-20 μM) in assay buffer [25 mM Tris/HCl pH 8, 1 mM EGTA, 2.5 mM Glutathion, 0.02% Chicken Albumin, 0.05% Pluronic F127, 25 mM NaCl, 500 nM H4 peptide and 600 nM Acetyl Coenzyme A].
The reaction was stopped by addition of Detection Solution (25 mM HEPES pH 7.5, 0.1% BSA, 22 nM SAXL665 (Cisbio #610SAXLE), 100 μM Anacardic Acid (Enzo #ALX-270-381), 1 nM Anti-Histone H4 (ACETYL K8) Antibody (ABCAM #AB15823), 0.5 nM Anti-Rabbit IgG Eu (Perkin Elmer #AD0083).
The fluorescence emission at 620 nm and 665 nm after excitation at 330-350 nm was measured in a TR-FRET measuring instrument, for instance a Rubystar or a Pherastar (both from BMG Lab Technologies, Offenburg, Germany) or a Viewlux (Perkin-Elmer). The ratio of the emission at 665 nm and at […] was used as indicator of the amount of acetylated peptide.
The resulting data (ratio) were normalized, taking 0% inhibition as the mean value of control measurements where all reagents were included. In this case 50 nl DMSO were used instead of compounds. […] IC50 values were determined by regression analysis based on a 4 parameter equation (minimum, maximum, ICM, Hill; Y=Max+(Min−Max)/(1+(X/ICso) Hill) using the Screener Software (Genedata).
Background: TR-FRET usually uses a lanthanide donor and a delayed reading to cut background.

Series [4] relates to Salmonella tester strain TA98. The experiment in a line: Bacterial reverse gene mutation test Ames MPF Penta I, TA98. Type of series: cell-based.
Excerpt: as §2, §3, §4

A further series has as its system ZR-75-1 cells. Nature of the series: Proliferation assay in ZR-75-1 cells. Type of series: cell-based. To be noted: Homo sapiens, 144 h, Alamar Blue, read-out: ZR75-1 proliferation assay, EC50[M] (arithmetic mean). Summed up:
as §1

In series [5] the test system is Salmonella tester strain TA1537. The experiment in a line: Bacterial reverse gene mutation test Ames MPF Penta I, TA1537. Type of series: cell-based.
Excerpt: as §2, §3, §4

For series [6], the system named is E. coli wp2 (E. coli wp2 [pKM101] and E. coli wp2 uvrA, combined exposure). The experiment in a line: Bacterial reverse gene mutation test Ames MPF Penta I, E. coli wp2. Type of series: cell-based.
Excerpt: as §2, §3, §4

The next series deals with LCLC-97TM1 cells. The experiment in a line: Proliferation assay in LCLC-97TM1 cells. Type of series: cell-based. To be noted: Homo sapiens, 144 h, Alamar Blue, read-out: LCLC97TM1 proliferation assay, EC50[M] (arithmetic mean). Summed up:
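LCLC-97TM1 large-cell lung carcinoma cells were seeded at 6000 per well in RPMI 1640 with 2.5% FBS and exposed to compound for 144 h at 37 °C, 5% CO2, in triplicate. Viability was read by Alamar Blue fluorescence at 590 nm after 2 h.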

T1 sequence (Q8WYB5 723-2073 limits assumed): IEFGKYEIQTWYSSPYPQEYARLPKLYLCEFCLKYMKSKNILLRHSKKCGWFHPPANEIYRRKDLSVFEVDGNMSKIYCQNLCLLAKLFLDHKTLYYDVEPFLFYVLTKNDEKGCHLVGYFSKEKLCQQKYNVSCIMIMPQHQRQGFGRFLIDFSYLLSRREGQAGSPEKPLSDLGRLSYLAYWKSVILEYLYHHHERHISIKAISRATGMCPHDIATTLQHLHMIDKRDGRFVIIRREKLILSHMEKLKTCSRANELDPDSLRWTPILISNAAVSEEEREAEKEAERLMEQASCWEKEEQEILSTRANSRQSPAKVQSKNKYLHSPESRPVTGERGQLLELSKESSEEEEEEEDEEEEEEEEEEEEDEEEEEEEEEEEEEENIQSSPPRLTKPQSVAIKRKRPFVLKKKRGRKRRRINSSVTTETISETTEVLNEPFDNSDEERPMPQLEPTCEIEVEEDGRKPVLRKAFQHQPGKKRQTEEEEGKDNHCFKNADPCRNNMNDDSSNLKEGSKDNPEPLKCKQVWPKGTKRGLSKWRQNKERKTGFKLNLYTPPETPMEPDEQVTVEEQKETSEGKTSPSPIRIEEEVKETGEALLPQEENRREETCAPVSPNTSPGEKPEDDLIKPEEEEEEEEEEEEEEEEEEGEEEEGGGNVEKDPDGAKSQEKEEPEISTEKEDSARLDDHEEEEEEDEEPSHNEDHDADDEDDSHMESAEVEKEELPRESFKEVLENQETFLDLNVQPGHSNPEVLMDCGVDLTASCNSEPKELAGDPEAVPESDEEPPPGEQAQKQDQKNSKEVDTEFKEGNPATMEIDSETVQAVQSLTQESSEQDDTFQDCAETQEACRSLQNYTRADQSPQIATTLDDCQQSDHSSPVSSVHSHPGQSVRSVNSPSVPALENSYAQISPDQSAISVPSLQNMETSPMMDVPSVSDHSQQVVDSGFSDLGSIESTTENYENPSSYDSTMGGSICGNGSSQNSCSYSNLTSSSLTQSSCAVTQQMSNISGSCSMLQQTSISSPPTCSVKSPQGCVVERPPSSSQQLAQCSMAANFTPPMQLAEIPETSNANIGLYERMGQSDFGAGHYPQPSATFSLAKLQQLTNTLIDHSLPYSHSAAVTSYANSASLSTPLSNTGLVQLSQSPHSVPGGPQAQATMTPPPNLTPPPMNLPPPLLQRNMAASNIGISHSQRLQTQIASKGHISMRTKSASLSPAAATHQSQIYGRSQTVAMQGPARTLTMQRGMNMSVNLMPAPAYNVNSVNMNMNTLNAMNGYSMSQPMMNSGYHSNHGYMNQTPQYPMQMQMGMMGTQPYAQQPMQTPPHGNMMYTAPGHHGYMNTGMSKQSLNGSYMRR

In the case of `CCOc1ccccc1S(=O)(=O)NC(=O)c1cc2c(F)cc(C3CC3)cc2o1` [Example 25, 6-Cyclopropyl-N-(2-ethoxybenzene-1-sulfonyl)-4-fluoro-1-benzofuran-2-carboxamide], the EC50 with MDA-MB-436 cells is greater than 2e-05 M; in the series with ZR-75-1 cells, 6.44e-07 M; in the series with LCLC-97TM1 cells, greater than 2e-05 M. Besides, the IC50 in series [1] turned out to be 5.42e-07 M; on KAT6B, 0.0284 µM. Besides, the “Result of the bacterial reverse gene mutation test Ames MPF Penta I, TA1535” value in [2] (with addition of S9 mix) and in series [2] (without addition of S9 mix) was “negative” throughout. The “Result of the bacterial reverse gene mutation test Ames MPF Penta I, TA100” value in [3] (with addition of S9 mix) and in series [3] (without addition of S9 mix) was “negative” throughout. Also, the “Result of the bacterial reverse gene mutation test Ames MPF Penta I, TA98” value in series [4] (with addition of S9 mix) and in series [4] (without addition of S9 mix) was “negative” each time. For the same compound, the “Result of the bacterial reverse gene mutation test Ames MPF Penta I, TA1537” value in [5] (with addition of S9 mix) and in series [5] (without addition of S9 mix) was “negative” in each case. Further, the “Result of the bacterial reverse gene mutation test Ames MPF Penta I, E. coli wp2” value in [6] (with addition of S9 mix) and in [6] (without addition of S9 mix) was “negative” throughout.

For the origin of these results see US20240287048A1, “SUBSTITUTED ACYL SULFONAMIDES FOR TREATING CANCER” (The Broad Institute, Inc., priority 2020, published 2024).
